Measured values published in patent publication US20250213533A1 (GH RESEARCH IRELAND LIMITED, priority 2022, published 2025).

Tested on: patients with postpartum depression (PPD)
Assay: Clinical trial of inhaled 5-MeO-DMT (IDR) in postpartum depression; one patient so far, 6 mg then 12 mg
Details: 1 patient
Method: The single-arm, open-label clinical trial will involve 15 adult female patients with clinically diagnosed postpartum depression (PPD).
The second dose (12 mg) will only be administered if: • a. […] The 6 mg dose was safe and well-tolerated according to the investigator, • c. Any psychoactive effects (PsE) of the prior dose have subsided, and • d. Pre-dose vital parameters and forced expiratory volume in one second (FEV1) are in normal range, or if outside of the normal range, are not clinically significant according to the investigator. • 3. Similarly, a third dose (18 mg) will only be administered if: • a. […] The 12 mg dose was safe and well-tolerated according to the investigator, and • c. Any PsE of the prior dose have subsided, and • d. Pre-dose vital parameters and forced expiratory volume in one second (FEV1) are in normal range, or if outside of the normal range, are not clinically significant according to the investigator.
The patients will be assessed for a peak psychedelic experience (based on a patient-scored visual analogue scale, the PE scale), sedation, and other endpoints after dosing. Follow-up visits are planned for Day 1, and Day 7 after the dosing day.
The following criteria must be met by all patients considered for clinical trial participation: • 1. Is female and in the age range between 18 and 45 years (inclusive) at screening. • 2. Has a body mass index (BMI) in the range of 18.5 and 35 kg/m^2 (inclusive) at screening. • 3. Meets the trial criteria for PPD as assessed by a trial psychiatrist or registered psychologist: • a. Diagnosis of Major Depressive Disorder without psychotic features, confirmed by the Mini-International Neuropsychiatric Interview (MINI), with peri-partum onset that began no earlier than gestation and no later than the first 4 weeks postpartum. • b. Has a Montgomery-Åsberg Depression Rating Scale (MADRS) total score of equal to or greater than 28 at screening and pre-dose on Day 0. • 6. […] Patients must have a negative pregnancy test at screening and on the pre-test day (Day −1). • 5. Is willing to delay start of other antidepressant or anxiety medication until after the end of the trial at Day 7 and agrees to keep any psychotherapy unchanged during the trial.
A potential patient who meets any of the following key exclusion criteria will be excluded from participation in this trial: • 1. Has, based on history, psychiatric assessment, and evaluation of the MINI, a current or prior diagnosis of bipolar disorder, a manic or hypomanic episode, a psychotic disorder, Major Depressive Disorder (MDD) or other mood disorder with psychotic features, obsessive compulsive disorder, post-traumatic stress disorder (PTSD), autism spectrum disorder, borderline personality disorder, schizophrenia, delusional disorder, paranoid personality disorder, schizoaffective disorder, clinically significant intellectual disability, or any other psychiatric comorbidity that renders the patient unsuitable for the trial according to the investigator's judgment. • 2. Has one or more first or second degree relatives with a current or previously diagnosed bipolar disorder, psychotic disorder or other mood disorder (including MDD) with psychotic features. • 3. Is in the judgement of a trial psychiatrist or registered psychologist, at significant risk for suicide based on history, psychiatric assessment, and evaluation of suicidal ideation and suicidal behaviour based on the Columbia-Suicide Severity Rating Scale (C-SSRS). • 4. Has taken anti-depressive medication within 14 days or 5 half-lives (whichever is longer) prior to dosing (exception: within the last 5 weeks in the case of fluoxetine). • 5.

Compound: COc1ccc2[nH]cc(CCN(C)C)c2c1 [5-MeO-DMT]
- BIMF item 11 (take a little time each week to do something for myself) score (Day 7): 6
- BIMF item 12 (taking good care of my baby's physical needs) score (Day 7): 6
- BIMF item 13 (taking good care of my physical needs) score (Day 7): 5
- BIMF item 14 (good decisions about my baby's health and well being) score (Day 7): 6
- BIMF item 15 (My baby and I are getting into a routine) score (Day 7): 6
- BIMF item 17 (able to take care of my baby and my other responsibilities) score (Day 7): 5
- BIMF item 18 (Anxiety or worry often interferes with my mothering ability) score (Day 7): 5
- BIMF item 19 (getting better at taking care of my baby) score (Day 7): 1
- BIMF item 20 (satisfied with the job I am doing as a new mother) score (Day 7): 5
- BPRS Anxiety improvement (Day 7): 6
- BPRS Anxiety score (Day 7): 1
- BPRS Blunted affect improvement (Day 7): 0
- BPRS Blunted affect score (Day 7): 1
- BPRS Conceptual disorganization improvement (Day 7): 0
- BPRS Conceptual disorganization score (Day 7): 1
- BPRS Depressive Mood improvement (Day 7): 5
- BPRS Depressive Mood score (Day 7): 1
- BPRS Disorientation improvement (Day 7): 0
- BPRS Disorientation score (Day 7): 1
- BPRS Emotional withdrawal improvement (Day 7): 4
- BPRS Emotional withdrawal score (Day 7): 1
- BPRS Excitement improvement (Day 7): 1
- BPRS Excitement score (Day 7): 1
- BPRS Grandiosity improvement (Day 7): 0
- BPRS Grandiosity score (Day 7): 1
- BPRS Guilt feelings improvement (Day 7): 5
- BPRS Guilt feelings score (Day 7): 1
- BPRS Hallucinatory behaviour improvement (Day 7): 0
- BPRS Hallucinatory behaviour score (Day 7): 1
- BPRS Hostility improvement (Day 7): 0
- BPRS Hostility score (Day 7): 1
- BPRS Mannerisms and Posturing improvement (Day 7): 0
- BPRS Mannerisms and Posturing score (Day 7): 1
- BPRS Motor retardation improvement (Day 7): 0
- BPRS Motor retardation score (Day 7): 1
- BPRS Somatic Concern improvement (Day 7): 5
- BPRS Somatic Concern score (Day 7): 1
- BPRS Suspiciousness improvement (Day 7): 0
- BPRS Suspiciousness score (Day 7): 1
- BPRS Tension improvement (Day 7): 5
- BPRS Tension score (Day 7): 1
- BPRS Uncooperativeness improvement (Day 7): 0
- BPRS Uncooperativeness score (Day 7): 1
- BPRS Unusual Thought Content improvement (Day 7): 0
- BPRS Unusual Thought Content score (Day 7): 1
- MADRS Apparent sadness improvement (Day 7): 5
- MADRS Apparent sadness score (Day 7): 0
- MADRS Concentration Difficulties improvement (Day 7): 0
- MADRS Concentration Difficulties score (Day 7): 0
- MADRS Inability to Feel improvement (Day 7): 3
- MADRS Inability to Feel score (Day 7): 0
- MADRS Inner Tension improvement (Day 7): 4
- MADRS Inner Tension score (Day 7): 1
- MADRS Lassitude improvement (Day 7): 3
- MADRS Lassitude score (Day 7): 0
- MADRS Pessimistic Thoughts improvement (Day 7): 4
- MADRS Pessimistic Thoughts score (Day 7): 0
- MADRS Reduced Sleep improvement (Day 7): 5
- MADRS Reduced Sleep score (Day 7): 0
- MADRS Reduced appetite improvement (Day 7): 0
- MADRS Reduced appetite score (Day 7): 0
- MADRS Reported sadness improvement (Day 7): 4
- MADRS Reported sadness score (Day 7): 0
- MADRS Suicidal Thoughts improvement (Day 7): 0
- MADRS Suicidal Thoughts score (Day 7): 0
- BIMF item 10 (trust my own feelings (instincts) in taking care of my baby) Δ (Day 7 vs Day 0): 1
- BIMF item 11 (take a little time each week to do something for myself) Δ (Day 7 vs Day 0): 1
- BPRS Anxiety improvement (Discharge): 6
- BPRS Anxiety score (Discharge): 1
- BPRS Blunted affect improvement (Discharge): 0
- BPRS Conceptual disorganization improvement (Discharge): 0
- BPRS Depressive Mood improvement (Discharge): 5
- BPRS Depressive Mood score (Discharge): 1
- BPRS Disorientation improvement (Discharge): 0
- BPRS Emotional withdrawal improvement (Discharge): 4
- BPRS Emotional withdrawal score (Discharge): 1
- BPRS Excitement improvement (Discharge): 1
- BPRS Excitement score (Discharge): 1
- BPRS Grandiosity improvement (Discharge): 0
- BPRS Guilt feelings improvement (Discharge): 5
- BPRS Guilt feelings score (Discharge): 1
- BPRS Hallucinatory behaviour improvement (Discharge): 0
- BPRS Hostility improvement (Discharge): 0
- BPRS Mannerisms and Posturing improvement (Discharge): 0
- BPRS Motor retardation improvement (Discharge): 0
- BPRS Somatic Concern improvement (Discharge): 5
- BPRS Somatic Concern score (Discharge): 1
- BPRS Suspiciousness improvement (Discharge): 0
- BPRS Tension score (Discharge): 1
- BPRS Uncooperativeness improvement (Discharge): 0
- BPRS Unusual Thought Content improvement (Discharge): 0
- BPRS Anxiety score (baseline): 7
- BPRS Blunted affect score (baseline): 1
- BPRS Conceptual disorganization score (baseline): 1
- BPRS Depressive Mood score (baseline): 6
- BPRS Disorientation score (baseline): 1
- BPRS Emotional withdrawal score (baseline): 5
- BPRS Excitement score (baseline): 2
- BPRS Grandiosity score (baseline): 1
- BPRS Guilt feelings score (baseline): 6
- BPRS Hallucinatory behaviour score (baseline): 1
- BPRS Hostility score (baseline): 1
- BPRS Mannerisms and Posturing score (baseline): 1
- BPRS Motor retardation score (baseline): 1
- BPRS Somatic Concern score (baseline): 6
- BPRS Suspiciousness score (baseline): 1
- BPRS Tension score (baseline): 6
- BPRS Uncooperativeness score (baseline): 1
- BPRS Unusual Thought Content score (baseline): 1
- MADRS Apparent sadness score (baseline): 5
- MADRS Inability to Feel score (baseline): 3
- MADRS Inner Tension score (baseline): 5
- MADRS Lassitude score (baseline): 3
- MADRS Pessimistic Thoughts score (baseline): 4
- MADRS Reported sadness score (baseline): 4
- Total MADRS score (baseline): 29
- changes in vital parameters (shortly after administration): temporary, clinically non-relevant increase in heart rate and blood pressure
